# According to publication PMC12612990, “PNA5, a glycosylated angiotensin-(1−7) mas receptor agonist for vascular dementia: A two species toxicology and toxicokinetic study” (Toxicology Reports, 2025):
# Peptide text beside a SMILES is read from it. * marks the point of attachment. βGlc = OC[C@H]1O[C@@H](*)[C@H](O)[C@@H](O)[C@@H]1O
# How the values were obtained:
# [1] = Toxicokinetics of PNA5 in Beagle dog plasma; details: dogs, plasma; for Tmax: table: average (range), text b115: median; for AUC(0-t) / Cmax: Beagle, dog, sc, 20 mg/kg/day, 20 mg/kg/day (NOAEL), day 28; for AUC(0-t): mean AUC0–2hr; for Cmax: mean Cmax
# Protocol: Toxicokinetic (TK) of PNA5 was obtained from plasma following a single and repeated subcutaneous injection administration of PNA5 once daily for 28 days. Blood samples were collected on days 1 and 28 at the following time points: pre-dose and at approximately 5, 15, 30, 60, and 120 min post-dose (equivalent to 0.083, 0.25, 0.5, 1, and 2 h).
# For the rat study, a total of 6 rats for each sex were assigned randomly to treatment groups 2–4 (those treated with PNA5). Three rats per sex were assigned to group 1 (vehicle control). Rats were sampled in satellite groups; rats' blood was taken at alternating time points, resulting in a total n = 3 per time point for six animals. For the dog study, three animals per sex were assigned to group 2 and group 3, and five animals per sex were assigned to group 1 and group 4. Blood was collected from canines via venipuncture.
# Blood was collected in heparinized tubes containing a protease inhibitor cocktail consisting of 4 mM 0-phenanthroline, 1.2 mM pepstatin A, and 0.5 M EDTA. Blood samples were centrifuged for 15 min at 2500 x g at room temperature. Plasma was transferred into pre-cooled, pre-labeled collection tubes, frozen immediately in liquid nitrogen/dry ice, and stored at −80 °C until analysis.
# PNA5 levels were analyzed using ultra-high performance liquid chromatography (UHPLC) with tandem mass spectrometric (MS/MS) detection. Precision and accuracy, reproducibility, selectivity, carryover, recovery, matrix effects, dilution integrity, hemolysis, stock stability, and matrix stability were assessed prior to initiation of the validation. Samples (5 µL) were injected onto the column and separated using gradient elution. Target compounds were quantified by summing the height of previously identified fragment peaks in the LC-MS [3] spectra. The serum concentrations were estimated using a calibration curve, accounting for the dilution factors and the probe recoveries for each experiment. Standards were matrix-matched to samples and underwent the same sample preparation steps.
# A noncompartmental analysis was used for parameter estimation. For PNA5 in plasma, the extravascular model was used for parameter estimation. For the rat study, all parameters were generated from PNA5 individual concentrations in plasma from days 1 and 28. Parameters were estimated using nominal dose levels and nominal sampling times relative to the dose administration. Plasma concentration values obtained at the pre-dose time point were used as the concentration at time 0 on days 1 and 28. For the dog study, all parameters were generated from PNA5 individual concentrations in plasma from days 1 and 28. Parameters were estimated using nominal dose levels and nominal sampling times relative to dose administration. Plasma concentration values obtained at the pre-dose time point were used as the concentration at time 0 on days 1 and 28. For Beagle dogs, concentration values reported as below the limit of quantitation (< 5 ng/mL) were assigned a value of 0.
# The toxicokinetic parameters evaluated included the area under the curve of the plasma PNA5 concentration against time from time 0 (pre-dose) to 2 h (post-dose) (AUC0–2hr), the maximum plasma concentration (Cmax), time to maximum plasma concentration (Tmax), elimination rate (Kel), and the half-life. The area under the concentration vs. time curve was calculated using the linear trapezoidal method with linear interpolation for all profiles with at least three consecutive quantifiable concentrations. Kel was calculated from the slope using exponential regression of concentration versus time (Excel); exponential interpolations for all profiles include at least three concentrations plotted against time. Time 0 values and all concentrations listed as zero were excluded from Kel calculations. The half-life was calculated from Kel via the following equation: half-life Ln(2)/Kel.
# [2] = system: male Beagle dogs; assay: Cardiovascular safety evaluation after a single subcutaneous dose in male Beagle dogs; assay type: in vivo, dog; details: single s.c. injection 1, 5 or 20 mg/kg
# Protocol: PNA5 -related cardiovascular effects were evaluated in male Beagle dogs at dose levels of 1, 5, or 20 mg/kg. To evaluate the effects of PNA5 when administered subcutaneously on the cardiovascular system the following parameters were measured including clinical observations, heart rate, arterial blood pressure (systolic, diastolic, and mean), pulse pressure, body temperature, and ECG waveforms (from which ECG waveform morphologies and ECG intervals PR, QRS, QT, and heart rate corrected QT [QTc] were derived).
# [3] = system: Sprague Dawley rats; assay: 28-day repeat-dose subcutaneous toxicology study (main and recovery) in Sprague Dawley rats; assay type: in vivo, rat
# Protocol: Rats used in studies were inspected upon receipt for good health and were acclimated for 7 days at a minimum. Male and female rats were randomly selected for one of the four treatment groups upon receipt. Group 1 rats received vehicle control (0.9 % sodium chloride (saline) for injection, USP) subcutaneously for 28 days. Rats in groups 2–4 received PNA5 at 1, 5, or 40 mg/kg/day subcutaneously for 28 days (Table 1). Rats for all studies were dosed once daily for 28 consecutive days via subcutaneous bolus injection. The first day of dosing was based on day 1 body weights. Toxicokinetic study animals were dosed in the same fashion as for the main and recovery study animals.
# Rats are observed at least twice daily (morning and afternoon) beginning upon arrival through termination/release for mortality. For the toxicology main study, 10 rats per sex were randomly assigned to groups 1–4. 5 rats per sex were assigned to groups 1 (control) and group 4 (PNA5 at 40 mg/kg/day) for the toxicology recovery study. The number of animals used for the toxicokinetic groups was calculated to meet a sufficient number of animals to provide samples for toxicokinetic analysis while minimizing the number of blood collections per animal.
# After 28 treatments, animals that were a part of the main and toxicokinetic study were scheduled for euthanasia on day 29, during which the necropsy measures were collected for the main study animals. Rats that were a part of the recovery animal study started the recovery period on day 29 and were scheduled for euthanasia on day 57, during which the same necropsy measures were collected. Animals were euthanized for humane reasons or at study termination via carbon dioxide inhalation followed by exsanguination via the vena cava for necropsy. Main Study and Recovery animals were fasted overnight prior to the scheduled necropsy. Following the final blood collection, animals in the toxicokinetic studies were euthanized by inhalation of carbon dioxide but were not exsanguinated for necropsy.
# The following parameters and end points were evaluated in this study: mortality, clinical observations, body weights, body weight gains, food consumption, ophthalmology, clinical pathology parameters (hematology, coagulation, clinical chemistry, and urinalysis), toxicokinetic parameters, organ weights, and macroscopic and microscopic examinations.
# Animals were observed daily. On days with dosing, observations were made 10–30 min postdosing. During the dosing, observations included but were not limited to the following: Changes in skin on the whole animal and at the injection site, fur, eyes, mucous membrane, and respiratory functions.
# A detailed clinical observation was performed 1 week prior to randomization, on the date of randomization, and then weekly during the study period, with the last observation on the day of the scheduled necropsy.
# The injection site was shaved and marked for identification and evaluation during the study. The injection site was collected at necropsy.
# Rats were weighed within 4 days of receipt, on the day of randomization, daily during the study, and on the day of the scheduled necropsies. Dogs were weighed one week prior to randomization (± 2 days), on the day of randomization, on Day 1 (prior to dosing), weekly (± 2 days) during the study period, on the day prior to the scheduled necropsies, and on the day of the scheduled necropsy.
# Rats' food consumption was measured quantitatively once weekly beginning on Day 1 and persisting throughout the study. Dogs' food consumption was measured daily beginning on Day 1 and persisting throughout the study.
# Ophthalmic examinations were conducted by a board-certified veterinary ophthalmologist using an indirect ophthalmoscope and slit lamp biomicroscope. Prior to examination, animals will be treated with a mydriatic agent. […]
# [4] = Stability of dosing formulations; assay type: physicochemical; details: solutions in 0.9 % sodium chloride, 0.1 mg/mL and 10 mg/mL
# Protocol: The analyzed dosing formulations were within the protocol-specified range of target concentrations for solutions and were stable at 0.1 mg/mL and 10 mg/mL following 24 h of room temperature storage and following 9 days of refrigerated storage.
# The analyzed dosing formulations contained 95.5–108.7 % of the test article, which was within the protocol-specified range of target concentrations for solutions (90–110 %), and were stable at 0.1 mg/mL and 10 mg/mL following 24 h of room temperature storage and following 9 days of refrigerated storage. The test article was not detected in the analyzed vehicle formulation that was administered to the control groups.
# [5] = rats, 1, 5, 40 mg/kg/day s.c. for 28 days
# [6] = rats, main study, day 29 necropsy
# [7] = rats, recovery study, 40 mg/kg/day vs control
smiles,measurement,setting,value
"CC[C@H](C)[C@H](NC(=O)[C@H](Cc1ccc(O)cc1)NC(=O)[C@@H](NC(=O)[C@H](CCCNC(=N)N)NC(=O)[C@@H](N)CC(=O)O)C(C)C)C(=O)N[C@@H](Cc1c[nH]cn1)C(=O)N[C@@H](CO[C@@H]1O[C@H](CO)[C@@H](O)[C@H](O)[C@H]1O)C(N)=O [PNA5, Ang-1–6-Ser-O-Glu-NH2] (H-DRVYIHS(βGlc)-NH2)",Kel,"[1]; s.c. 1 mg/kg/day, day 28, sexes combined, mean ± SD, n = 6, exponential regression","2.87 ± 0.86, 6 hr^–1"
same,AUC0–2,"[1]; s.c. 1 mg/kg/day, day 28, sexes combined, mean ± SD, n = 6, linear trapezoidal","62.61 ± 19.05, 6 hr*ng/mL"
same,Tmax,"[1]; s.c. 1 mg/kg/day, day 28, sexes combined",0.167(0.083–0.25) hr
same,Kel,"[1]; s.c. 5 mg/kg/day, day 1, sexes combined, mean ± SD, n = 6, exponential regression","1.44 ± 0.33, 6 hr^–1"
same,Tmax,"[1]; s.c. 5 mg/kg/day, day 1, sexes combined",0.25 h
same,Kel,"[1]; s.c. 5 mg/kg/day, day 28, sexes combined, mean ± SD, n = 6, exponential regression","1.32 ± 0.43, 6 hr^–1"
same,Tmax,"[1]; s.c. 5 mg/kg/day, day 28, sexes combined",0.167 h
same,Kel,"[1]; s.c. 20 mg/kg/day, day 1, sexes combined, mean ± SD, n = 10, exponential regression","1.02 ± 0.17, 10 hr^–1"
same,Tmax,"[1]; s.c. 20 mg/kg/day, day 1, sexes combined",0.25 h
same,Kel,"[1]; s.c. 20 mg/kg/day, day 28, sexes combined, mean ± SD, n = 10, exponential regression","0.86 ± 0.35, 10 hr^–1"
same,AUC(0-t),"[1]; female, females, females",1150 ng·h/mL
same,Cmax,"[1]; female, females, females",1140 ng/mL
same,AUC(0-t),"[1]; male, males, males",1000 ng·h/mL
same,Cmax,"[1]; male, males, males",1100 ng/mL
same,"clinical observations, heart rate, arterial blood pressure, pulse pressure, body temperature and ECG waveforms",[2],no effect
same,"tolerability (mortality, adverse findings)","[3]; Sprague-Dawley rats, main and recovery studies, s.c. bolus once daily 28 days, 1, 5, 40 mg/kg/day",well tolerated at all doses with no effects on mortality or adverse findings
same,mixed cell infiltration at the subcutaneous dorsoscapular injection site,"[3]; rats, 40 mg/kg/day group females, main study, considered within the expected response to the injection procedure",increase in incidence and severity of mixed cell infiltration
same,prostate/seminal vesicle weight normalized to body weight or brain weight vs control,"[3]; rats, 40 mg/kg/day group males, recovery study, considered incidental, absolute weights not different",significantly higher
same,body weights and body weight gains,[3]; [5],unaffected
same,food consumption,[3]; [5],unaffected
same,clinical observations,"[3]; rats, 1, 5, 40 mg/kg/day subq for 28 days, main and recovery study",no test article-related clinical observations
same,survival,"[3]; rats, 1, 5 and 40 mg/kg/day s.c. for 28 days",All animals survived until the scheduled euthanasia
same,ophthalmic examinations,"[3]; rats, all test article-treated groups",No ophthalmic lesions indicative of toxicity were observed
same,"hematology, coagulation, clinical chemistry and urinalysis parameters","[3]; rats, main study, all dose levels",unaffected
same,macroscopic findings,[3]; [6],no test article-related macroscopic findings
same,microscopic findings,[3]; [6],no test article-related microscopic findings
same,organ weights,[3]; [6],no test article-related organ weight changes
same,microscopic findings,"[3]; rats, recovery study",No test article-related microscopic findings were noted
same,macroscopic findings,[3]; [7],no test article-related macroscopic findings
same,organ weights,[3]; [7],no test article-related organ weight changes
same,stability of dosing formulations,[4]; 24 h of room temperature storage,stable
same,stability of dosing formulations,[4]; 9 days of refrigerated storage,stable
